Measurements taken from patent US8541455B2, “Derivatives of 2-pyridin-2-yl-pyrazol-3(2H)-one, preparation and therapeutic use thereof as HIF activators” (Sanofi, priority 2008, dated 2013).
Where a name gives a salt, the structure may show the parent alone.

SMILES	melting point [°C]
CCN(c1ccccc1)S(=O)(=O)c1ccc(-n2[nH]cc(CC(=O)N(C)C)c2=O)nc1 [Compound 105]	168
CN(C1CCCC1)S(=O)(=O)c1ccc(-n2[nH]cc(Cc3ccncc3)c2=O)nc1 (as salt: HCl) [Compound 120]	130
CN1CCC(N(C)S(=O)(=O)c2ccc(-n3[nH]cc(Cc4ccccc4)c3=O)nc2)C1 (centres unmarked) (as salt: HCl) [Compound 139]	130
CCN(c1ccccc1)S(=O)(=O)c1ccc(-n2[nH]c(C)c(Cc3ccc(C#N)nc3)c2=O)nc1 [Compound 103]	120
CC(C)(C)CNS(=O)(=O)c1ccc(-n2[nH]cc(Cc3cccnc3)c2=O)nc1 (as salt: HCl) [Compound 136]	123
COc1cncc(Cc2c(C)[nH]n(-c3ccc(S(=O)(=O)NC(C)(C)C)cn3)c2=O)c1 (as salt: HCl) [Compound 96]	150
CCN(c1ccccc1)S(=O)(=O)c1ccc(-n2[nH]c(C)c(Cc3cncc(OC)c3)c2=O)nc1 [Compound 86]	138
CCN(c1ccccc1)S(=O)(=O)c1ccc(-n2[nH]c(C)c(Cc3ccc(N(C)C)cc3)c2=O)nc1 [Compound 50]	182
CCN(c1ccccc1)S(=O)(=O)c1ccc(-n2[nH]cc(CCC(=O)O)c2=O)nc1 [Compound 110]	214
COC(=O)C(c1ccccc1)c1c[nH]n(-c2ccc(S(=O)(=O)NC(C)(C)C)cn2)c1=O (centres unmarked) [Compound 113, methyl {2-[5-(tert-butylsulfamoyl)pyridin-2-yl]-3-oxo-2,3-dihydro-1H-pyrazol-4-yl}(phenyl)acetate]	66
CCN(c1ccccc1)S(=O)(=O)c1ccc(-n2[nH]cc(CCC(=O)OC)c2=O)nc1 [Compound 112]	128
O=c1c(Cc2ccccc2)c[nH]n1-c1ccc(S(=O)(=O)N(CC(CO)CO)C2CCCC2)cn1 [Compound 147, 6-(4-benzyl-5-oxo-2,5-dihydro-1H-pyrazol-1-yl)-N-cyclopentyl-N-[3-hydroxy-2-(hydroxymethyl)propyl]pyridine-3-sulfonamide]	> 260
COC(=O)CN(C1CCCC1)S(=O)(=O)c1ccc(-n2[nH]cc(Cc3cccnc3)c2=O)nc1 (as salt: HCl) [Compound 128, methyl N-cyclopentyl-N-({6-[5-oxo-4-(pyridin-3-ylmethyl)-2,5-dihydro-1H-pyrazol-1-yl]pyridin-3-yl}sulfonyl)glycinate hydrochloride]	110
CC(C)(C)NS(=O)(=O)c1ccc(-n2[nH]cc(Cc3cccnc3)c2=O)nc1 [Compound 98A, N-tert-butyl-6-[5-oxo-4-(pyridin-3-ylmethyl)-2,5-dihydro-1H-pyrazol-1-yl]pyridine-3-sulfonamide]	220
COC(C)(C)CNS(=O)(=O)c1ccc(-n2[nH]cc(Cc3ccccc3)c2=O)nc1 (as salt: HCl) [Compound 141]	194
O=c1c(Cc2ccccc2)c[nH]n1-c1ccc(S(=O)(=O)N(C[C@@H](O)CO)C2CCCC2)cn1 [Compound 142, 6-(4-benzyl-5-oxo-2,5-dihydro-1H-pyrazol-1-yl)-N-cyclopentyl-N-[(2R)-2,3-dihydroxypropyl]pyridine-3-sulfonamide]	184
CCN(c1ccccc1)S(=O)(=O)c1ccc(-n2[nH]c(C)c(Cc3cncc(C#N)c3)c2=O)nc1 [Compound 97, 6-{4-[(5-cyanopyridin-3-yl)methyl]-3-methyl-5-oxo-2,5-dihydro-1H-pyrazol-1-yl}-N-ethyl-N-phenylpyridine-3-sulfonamide]	164
COC(=O)CC(c1ccccc1)c1c[nH]n(-c2ccc(S(=O)(=O)N(C)C3CCCC3)cn2)c1=O (centres unmarked) [Compound 114]	80

SMILES	melting point [°C]
CCOC(=O)Cc1[nH]n(-c2ccc(S(=O)(=O)N(CC)c3ccccc3)cn2)c(=O)c1Cc1ccccc1 [Compound 106, ethyl (4-benzyl-1-{5-[ethyl(phenyl)sulfamoyl]pyridin-2-yl}-5-oxo-2,5-dihydro-1H-pyrazol-3-yl)acetate]	156
Cc1[nH]n(-c2ccc(S(=O)(=O)N(C)C3CC3)cn2)c(=O)c1Cc1cccnc1 (as salt: HCl) [Compound 95]	138
COc1ccncc1Cc1c[nH]n(-c2ccc(S(=O)(=O)N(C)C3CCCC3)cn2)c1=O (as salt: HCl) [Compound 144]	40
O=c1c(Cc2ccccc2)c[nH]n1-c1ccc(S(=O)(=O)N[C@H]2CCC[C@@H]2O)cn1 [Compound 149]	176
Cc1[nH]n(-c2ccc(S(=O)(=O)Nc3ccccc3)cn2)c(=O)c1Cc1cccnc1 (as salt: HCl) [Compound 90]	154
CN(C1CCCC1)S(=O)(=O)c1ccc(-n2[nH]cc(C(CC(=O)NCC(F)(F)F)c3ccccc3)c2=O)nc1 (centres unmarked) [Compound 146, 3-(2-{5-[cyclopentyl(methyl)sulfamoyl]pyridin-2-yl}-3-oxo-2,3-dihydro-1H-pyrazol-4-yl)-3-phenyl-N-(2,2,2-trifluoroethyl)propanamide]	80
CCN(c1ccccc1)S(=O)(=O)c1ccc(-n2[nH]cc(Cc3ccccc3)c2=O)nc1 (as salt: HCl) [Compound 93, 6-(4-benzyl-5-oxo-2,5-dihydro-1H-pyrazol-1-yl)-N-ethyl-N-phenylpyridine-3-sulfonamide]	180
CCN(c1ccccc1)S(=O)(=O)c1ccc(-n2[nH]c(C)c(Cc3cccc(C(=O)OC)c3)c2=O)nc1 [Compound 111]	172
CCN(C1CCCC1)S(=O)(=O)c1ccc(-n2[nH]cc(Cc3ccncc3)c2=O)nc1 (as salt: HCl) [Compound 119]	115
CCN(c1ccccc1)S(=O)(=O)c1ccc(-n2[nH]c(C)c(Cc3cccc(OC)c3)c2=O)nc1 [Compound 55]	146
CN(C)CCCN(C1CCCC1)S(=O)(=O)c1ccc(-n2[nH]cc(Cc3ccccc3)c2=O)nc1 (as salt: HCl) [Compound 123, 6-(4-benzyl-5-oxo-2,5-dihydro-1H-pyrazol-1-yl)-N-cyclopentyl-N-[3-(dimethylamino)propyl]pyridine-3-sulfonamide hydrochloride]	230
CCN(c1ccccc1)S(=O)(=O)c1ccc(-n2[nH]cc(Cc3cncc(OC)c3)c2=O)nc1.Cl	136
CCN(c1ccccc1)S(=O)(=O)c1ccc(-n2[nH]c(CC(=O)N(C)C)c(Cc3ccccc3)c2=O)nc1 [Compound 109]	163
CCN(c1ccccc1)S(=O)(=O)c1ccc(-n2[nH]c(C)c(Cc3ccc(OCCOC)cc3)c2=O)nc1 [Compound 61]	176
CCN(c1ccccc1)S(=O)(=O)c1ccc(-n2[nH]cc(Cc3cccnc3)c2=O)nc1 (as salt: HCl) [Compound 99]	142
CCN(c1ccccc1)S(=O)(=O)c1ccc(-n2[nH]c(C)c(Cc3ccccc3OC)c2=O)nc1 [Compound 57]	108
CCN(c1ccccc1)S(=O)(=O)c1ccc(-n2[nH]c(C)c(CC3CCN(C)CC3)c2=O)nc1 (as salt: HCl) [Compound 94]	150

Next, values leading:

melting point [°C]	SMILES
62	COc1ccc(OC)c(Cc2c(C)[nH]n(-c3ccccn3)c2=O)c1 [Compound 184]
176	Cc1[nH]n(-c2ccc(S(=O)(=O)c3ccccc3)cn2)c(=O)c1Cc1cccnc1 [Compound 197, 5-methyl-2-[5-(phenylsulfonyl)pyridin-2-yl]-4-(pyridin-3-ylmethyl)-1,2-dihydro-3H-pyrazol-3-one]
96	COc1cc(Cc2c(C)[nH]n(-c3ccccn3)c2=O)cc(OC)c1 [Compound 179]
230	CN(C)CC(C)(C)NS(=O)(=O)c1ccc(-n2[nH]cc(Cc3ccccc3)c2=O)nc1 (as salt: HCl) [Compound 152]
162	Cc1[nH]n(-c2ccccn2)c(=O)c1Cc1ccncc1 [Compound 175]
144	Cc1[nH]n(-c2ccccn2)c(=O)c1Cc1ccc(S(C)(=O)=O)cc1 [Compound 180]
80	Cc1[nH]n(-c2ccccn2)c(=O)c1Cc1cccnc1 [Compound 183]
68	COCCOc1cccc(Cc2c(C)[nH]n(-c3ccccn3)c2=O)c1 [Compound 181]
110	Cc1[nH]n(-c2ccccn2)c(=O)c1Cc1ccccc1 [Compound 182]
180	O=c1c(Cc2ccccc2)c[nH]n1-c1ccc(S(=O)(=O)NCCO)cn1 [Compound 157]
146	COC(=O)CC(c1cccnc1)c1c[nH]n(-c2ccc(S(=O)(=O)NC(C)(C)C)cn2)c1=O (centres unmarked) (as salt: HCl) [Compound 154, methyl 3-(2-[5-(tert-butylsulfamoyl)pyridin-2-yl]-3-oxo-2,3-dihydro-1H-pyrazol-4-yl)-3-(pyridin-3-yl)propanoate]
106	Cc1[nH]n(-c2ccccn2)c(=O)c1Cc1ccccc1C(F)(F)F [Compound 188]
78	Cc1[nH]n(-c2ccccn2)c(=O)c1Cc1cccc(C(F)(F)F)c1 [Compound 185]
130	CCOC(=O)CC(c1ccccc1)c1c[nH]n(-c2ccc(S(=O)(=O)NC(C)(C)C)cn2)c1=O (centres unmarked) [Compound 155]
160	CC(C)(C)COC(=O)c1ccc(-n2[nH]cc(Cc3cccnc3)c2=O)nc1 [Compound 198, 2,2-dimethylpropyl 6-[5-oxo-4-(pyridin-3-ylmethyl)-2,5-dihydro-1H-pyrazol-1-yl]pyridine-3-carboxylate]
132	Cc1[nH]n(-c2ccccn2)c(=O)c1Cc1cccc(N(C)C)c1 (as salt: HCl) [Compound 190]
76	CCc1[nH]n(-c2ccccn2)c(=O)c1Cc1ccccc1 [Compound 195]
154	Cc1[nH]n(-c2ccccn2)c(=O)c1Cc1ccc(C#N)cc1 [Compound 173]
160	CC(C)(C)OC(=O)c1ccc(-n2[nH]cc(Cc3cccnc3)c2=O)nc1 (as salt: HCl) [Compound 202]
226	CC(C)(C)NS(=O)(=O)c1ccc(-n2[nH]cc(Cc3ccncc3)c2=O)nc1 [Compound 150]
128	Cc1[nH]n(-c2ccccn2)c(=O)c1CCc1ccccc1 [Compound 196]
